Measured values reported in ChEMBL document CHEMBL4385613, “Discovery of Conformational Control Inhibitors Switching off the Activated c-KIT and Targeting a Broad Range of Clinically Relevant c-KIT Mutants” (J Med Chem, 2019).
Active and inactive are the calls of the source. The calls are words filed in the database; no cut-off is given here.

Tests used:
[1] = tested on: Mast/stem cell growth factor receptor Kit (Homo sapiens), P10721 [V560G]; assay: Inhibition of human c-KIT JM domain exon 11 V560G single mutant at 100 nM using poly (Glu,Tyr) 4:1 as substrate in presence of 33P-gamma-ATP by hotspot kinase assay relative to control
Chain of Mast/stem cell growth factor receptor Kit (Homo sapiens), P10721 [V560G] (P10721 whole entry V560G, the tested form may be a part): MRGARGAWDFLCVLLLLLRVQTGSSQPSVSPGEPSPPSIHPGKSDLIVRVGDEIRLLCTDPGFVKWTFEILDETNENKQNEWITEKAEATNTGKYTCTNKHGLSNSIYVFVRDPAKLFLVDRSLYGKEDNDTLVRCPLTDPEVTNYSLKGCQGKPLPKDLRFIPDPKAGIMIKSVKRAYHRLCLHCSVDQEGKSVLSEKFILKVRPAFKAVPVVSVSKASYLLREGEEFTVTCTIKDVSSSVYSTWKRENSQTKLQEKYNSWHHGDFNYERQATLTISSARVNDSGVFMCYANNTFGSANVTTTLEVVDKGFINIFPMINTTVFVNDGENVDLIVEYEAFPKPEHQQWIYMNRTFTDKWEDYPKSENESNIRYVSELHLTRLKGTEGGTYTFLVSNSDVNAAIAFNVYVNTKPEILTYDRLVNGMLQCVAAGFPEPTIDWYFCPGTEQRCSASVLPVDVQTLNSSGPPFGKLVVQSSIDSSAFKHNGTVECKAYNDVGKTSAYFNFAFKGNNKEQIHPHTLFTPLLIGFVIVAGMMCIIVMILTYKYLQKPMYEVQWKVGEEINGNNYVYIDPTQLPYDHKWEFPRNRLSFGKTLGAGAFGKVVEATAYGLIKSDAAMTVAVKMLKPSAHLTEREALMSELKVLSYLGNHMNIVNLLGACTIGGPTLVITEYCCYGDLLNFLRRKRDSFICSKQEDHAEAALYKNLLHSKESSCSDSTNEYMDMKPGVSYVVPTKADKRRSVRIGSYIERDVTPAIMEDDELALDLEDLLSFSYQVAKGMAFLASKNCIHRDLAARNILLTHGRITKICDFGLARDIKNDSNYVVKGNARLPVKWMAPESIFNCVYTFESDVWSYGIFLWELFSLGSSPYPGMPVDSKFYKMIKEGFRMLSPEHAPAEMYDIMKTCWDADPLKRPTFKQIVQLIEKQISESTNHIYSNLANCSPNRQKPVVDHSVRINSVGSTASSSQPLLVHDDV

[2] = tested on: Mast/stem cell growth factor receptor Kit (Homo sapiens), P10721 [V654A]; assay: Inhibition of human c-KIT ATP binding domain exon 13 V654A single mutant at 10 nM using poly (Glu,Tyr) 4:1 as substrate in presence of 33P-gamma-ATP by hotspot kinase assay relative to control
Chain of Mast/stem cell growth factor receptor Kit (Homo sapiens), P10721 [V654A] (P10721 whole entry V654A, the tested form may be a part): as the sequence (P10721 whole entry V560G, the tested form may be a part) above, with G560V, V654A counted along it

[3] = target: Mast/stem cell growth factor receptor Kit (Homo sapiens, UniProt P10721, V654A); assay: Inhibition of human c-KIT ATP binding domain exon 13 V654A single mutant using poly (Glu,Tyr) 4:1 as substrate in presence of 33P-gamma-ATP by hotspot kinase assay
Chain of Mast/stem cell growth factor receptor Kit (Homo sapiens, UniProt P10721, V654A) (P10721 26-976 V654A limits assumed): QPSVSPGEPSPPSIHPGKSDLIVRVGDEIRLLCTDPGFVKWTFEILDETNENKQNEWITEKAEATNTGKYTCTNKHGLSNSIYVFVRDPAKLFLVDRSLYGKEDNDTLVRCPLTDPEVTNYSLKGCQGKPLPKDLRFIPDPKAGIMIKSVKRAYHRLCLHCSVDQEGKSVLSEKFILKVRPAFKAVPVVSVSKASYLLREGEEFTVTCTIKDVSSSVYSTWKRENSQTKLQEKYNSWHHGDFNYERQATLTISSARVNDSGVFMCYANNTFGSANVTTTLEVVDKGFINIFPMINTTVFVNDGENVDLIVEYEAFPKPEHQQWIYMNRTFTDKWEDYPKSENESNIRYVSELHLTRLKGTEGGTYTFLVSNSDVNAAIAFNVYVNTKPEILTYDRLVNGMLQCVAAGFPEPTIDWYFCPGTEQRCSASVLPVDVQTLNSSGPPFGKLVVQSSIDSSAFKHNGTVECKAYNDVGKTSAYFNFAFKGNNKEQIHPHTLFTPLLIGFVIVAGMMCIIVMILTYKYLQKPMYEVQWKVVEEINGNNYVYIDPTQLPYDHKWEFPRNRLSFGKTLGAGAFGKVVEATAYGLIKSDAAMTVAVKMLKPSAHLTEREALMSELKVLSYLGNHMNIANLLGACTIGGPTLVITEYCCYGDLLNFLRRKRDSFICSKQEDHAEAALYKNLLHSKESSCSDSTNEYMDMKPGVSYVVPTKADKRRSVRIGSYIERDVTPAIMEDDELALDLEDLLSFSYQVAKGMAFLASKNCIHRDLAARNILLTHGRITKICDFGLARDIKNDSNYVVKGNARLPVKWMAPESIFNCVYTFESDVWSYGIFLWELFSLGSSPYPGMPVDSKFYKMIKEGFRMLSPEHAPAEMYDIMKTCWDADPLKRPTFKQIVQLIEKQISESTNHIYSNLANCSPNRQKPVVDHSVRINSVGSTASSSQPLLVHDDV

[4] = Volume of distribution at steady state in ICR mouse at 2 mg/kg, iv administered as single dose measured up to 24 hrs by LC-MS/MS analysis; type: ADME, organism-based; conditions: in vivo, read-out: Vdss
[5] = tested on: Mast/stem cell growth factor receptor Kit (Homo sapiens), P10721 [A829P]; assay: Inhibition of human c-KIT A loop exon 18 A829P single mutant at 100 nM using poly (Glu,Tyr) 4:1 as substrate in presence of 33P-gamma-ATP by hotspot kinase assay relative to control
Chain of Mast/stem cell growth factor receptor Kit (Homo sapiens), P10721 [A829P] (P10721 whole entry A829P): as the sequence (P10721 whole entry V560G, the tested form may be a part) above, with G560V, A829P counted along it

Mus musculus = assay: Decrease in c-KIT phosphorylation in NOD-SCID mouse xenografted with human GIST430 cells harboring c-KIT exon 11 primary in-frame V560-L576 deletion mutant and exon 13 heterozygous secondary missense V654A mutant at 80 mg/kg, po measured after 8 hrs by immunoblotting analysis relative to control; type: functional
[6] = target: Mast/stem cell growth factor receptor Kit (Homo sapiens, UniProt P10721, D820E); assay: Inhibition of human c-KIT A loop exon 17 D820E single mutant using poly (Glu,Tyr) 4:1 as substrate in presence of 33P-gamma-ATP by hotspot kinase assay
Chain of Mast/stem cell growth factor receptor Kit (Homo sapiens, UniProt P10721, D820E) (P10721 26-976 D820E limits assumed): as the sequence (P10721 26-976 V654A limits assumed) above, with A629V, D795E counted along it

[7] = tested on: Mast/stem cell growth factor receptor Kit (Homo sapiens), P10721 [D816H]; conditions: at 100 nM
Chain of Mast/stem cell growth factor receptor Kit (Homo sapiens), P10721 [D816H] (P10721 whole entry D816H): as the sequence (P10721 whole entry V560G, the tested form may be a part) above, with G560V, D816H counted along it
Description: Inhibition of human c-KIT A loop exon 17 D816H single mutant at 100 nM using poly (Glu,Tyr) 4:1 as substrate in presence of 33P-gamma-ATP by hotspot kinase assay relative to control

[8] = target: Mast/stem cell growth factor receptor Kit (Homo sapiens, UniProt P10721, N822K/V560G); assay: Inhibition of human c-KIT A loop exon 11/17 V560G/N822K double mutant using poly (Glu,Tyr) 4:1 as substrate in presence of 33P-gamma-ATP by hotspot kinase assay
Chain of Mast/stem cell growth factor receptor Kit (Homo sapiens, UniProt P10721, N822K/V560G) (P10721 26-976 V560G/N822K limits assumed): as the sequence (P10721 26-976 V654A limits assumed) above, with V535G, A629V, N797K counted along it

GIST430 = assay: Antiproliferative activity against human GIST430 cells harboring c-KIT exon 11 primary in-frame V560-L576 deletion mutant and exon 13 heterozygous secondary missense V654A mutant assessed as reduction in cell viability by methylene blue staining based assay; type: functional
GIST48 = assay: Antiproliferative activity against human GIST48 cells harboring c-KIT exon 11 homozygous primary missense V560D mutant and exon 17 heterozygous secondary D820A mutant assessed as reduction in cell viability by methylene blue staining based assay; type: functional
[9] = target: Mast/stem cell growth factor receptor Kit (Homo sapiens, UniProt P10721, A829P); assay: Inhibition of human c-KIT A loop exon 18 A829P single mutant using poly (Glu,Tyr) 4:1 as substrate in presence of 33P-gamma-ATP by hotspot kinase assay
Chain of Mast/stem cell growth factor receptor Kit (Homo sapiens, UniProt P10721, A829P) (P10721 26-976 A829P limits assumed): as the sequence (P10721 26-976 V654A limits assumed) above, with A629V, A804P counted along it

[10] = tested on: Mast/stem cell growth factor receptor Kit (Homo sapiens), P10721 [UNDEFINED MUTATION]; assay: Inhibition of c-KIT V560-L576 deletion/V654A double mutant phosphorylation in human GIST430 cells assessed as decrease in phosphorylation of AKT at 10 to 100 nM measured after 24 to 72 hrs by Western blot analysis; type: cell-based
Chain of Mast/stem cell growth factor receptor Kit (Homo sapiens), P10721 [UNDEFINED MUTATION] (P10721 whole entry, looked up, stated change not applied): as the sequence (P10721 whole entry V560G, the tested form may be a part) above, with G560V counted along it

[11] = Antiproliferative activity against human GIST48B cells assessed as reduction in cell viability by methylene blue staining based assay; type: functional
[12] = Antiproliferative activity against human Detroit 551 assessed as reduction in cell viability after 72 hrs by MTS assay; type: cell-based; conditions: Detroit 551 cells
GISTT1 = assay: Antiproliferative activity against human GISTT1 cells harboring heterozygous V560-Y578 del mutation assessed as reduction in cell viability by methylene blue staining based assay; type: functional
[13] = tested on: Mast/stem cell growth factor receptor Kit (Homo sapiens), P10721 [K642E]; assay: Inhibition of human c-KIT ATP binding domain exon 13 K642E single mutant at 10 nM using poly (Glu,Tyr) 4:1 as substrate in presence of 33P-gamma-ATP by hotspot kinase assay relative to control
Chain of Mast/stem cell growth factor receptor Kit (Homo sapiens), P10721 [K642E] (P10721 whole entry K642E, the tested form may be a part): as the sequence (P10721 whole entry V560G, the tested form may be a part) above, with G560V, K642E counted along it

[14] = target: Mast/stem cell growth factor receptor Kit (Homo sapiens, UniProt P10721, T670I); assay: Inhibition of human c-KIT ATP binding domain exon 14 T670I single mutant using poly (Glu,Tyr) 4:1 as substrate in presence of 33P-gamma-ATP by hotspot kinase assay
Chain of Mast/stem cell growth factor receptor Kit (Homo sapiens, UniProt P10721, T670I) (P10721 26-976 T670I limits assumed): as the sequence (P10721 26-976 V654A limits assumed) above, with A629V, T645I counted along it

[15] = tested on: Mast/stem cell growth factor receptor Kit (Homo sapiens), P10721 [Y823D]; conditions: at 10 nM
Chain of Mast/stem cell growth factor receptor Kit (Homo sapiens), P10721 [Y823D] (P10721 whole entry Y823D): as the sequence (P10721 whole entry V560G, the tested form may be a part) above, with G560V, Y823D counted along it
Description: Inhibition of human c-KIT A loop exon 17 Y823D single mutant at 10 nM using poly (Glu,Tyr) 4:1 as substrate in presence of 33P-gamma-ATP by hotspot kinase assay relative to control

[16] = target: Mast/stem cell growth factor receptor Kit (Homo sapiens, UniProt P10721, D816H); assay: Inhibition of human c-KIT A loop exon 17 D816H single mutant using poly (Glu,Tyr) 4:1 as substrate in presence of 33P-gamma-ATP by hotspot kinase assay
Chain of Mast/stem cell growth factor receptor Kit (Homo sapiens, UniProt P10721, D816H) (P10721 26-976 D816H limits assumed): as the sequence (P10721 26-976 V654A limits assumed) above, with A629V, D791H counted along it

[17] = target: Mast/stem cell growth factor receptor Kit (Homo sapiens, UniProt P10721); assay: Inhibition of unactivated recombinant human N-terminal 6x-His-tagged c-KIT (547 to 935 residues)/(694 to 753 residues deletion) expressed in baculovirus infected Sf9 insect cells assessed as decrease in poly (Glu,Tyr) 4:1 phosphorylation incubated for 30 mins followed by ATP addition and measured after 120 mins by Kinase Glo based luminescence assay
[18] = target: Mast/stem cell growth factor receptor Kit (Homo sapiens, UniProt P10721, V560G); assay: Inhibition of human c-KIT JM domain exon 11 V560G single mutant using poly (Glu,Tyr) 4:1 as substrate in presence of 33P-gamma-ATP by hotspot kinase assay
Chain of Mast/stem cell growth factor receptor Kit (Homo sapiens, UniProt P10721, V560G) (P10721 26-976 V560G limits assumed): as the sequence (P10721 26-976 V654A limits assumed) above, with V535G, A629V counted along it

[19] = tested on: Mast/stem cell growth factor receptor Kit (Homo sapiens), P10721 [V654A]; assay: Inhibition of human c-KIT ATP binding domain exon 13 V654A single mutant at 100 nM using poly (Glu,Tyr) 4:1 as substrate in presence of 33P-gamma-ATP by hotspot kinase assay relative to control
[20] = Cmax in ICR mouse at 10 mg/kg, po administered as single dose measured up to 24 hrs by LC-MS/MS analysis; type: ADME, organism-based; parameters: dose 10 mg/kg, route oral; conditions: in vivo
[21] = tested on: Mast/stem cell growth factor receptor Kit (Homo sapiens), P10721 [A829P]; assay: Inhibition of human c-KIT A loop exon 18 A829P single mutant at 10 nM using poly (Glu,Tyr) 4:1 as substrate in presence of 33P-gamma-ATP by hotspot kinase assay relative to control
[22] = tested on: Mast/stem cell growth factor receptor Kit (Homo sapiens), P10721 [D820Y]; conditions: at 100 nM
Chain of Mast/stem cell growth factor receptor Kit (Homo sapiens), P10721 [D820Y] (P10721 whole entry D820Y): as the sequence (P10721 whole entry V560G, the tested form may be a part) above, with G560V, D820Y counted along it
Description: Inhibition of human c-KIT A loop exon 17 D820Y single mutant at 100 nM using poly (Glu,Tyr) 4:1 as substrate in presence of 33P-gamma-ATP by hotspot kinase assay relative to control

Work on `CCc1cc(NC(=O)Nc2ccc(-c3cnc(Nc4cc(N5CCN(CC)CC5)ncn4)s3)cc2)no1` yielded an inhibition [1] of 99%, an inhibition [2] of 43% and an IC50 [3] of 4.14 nM. It also gave a Vd [4] of 7.1 L/kg, an inhibition [5] of 99% and an inhibition in vivo at 80 mg/kg (Mus musculus) of 95.9%. It also gave an IC50 [6] of 0.81 nM, an inhibition [7] of 96% and an IC50 [8] of 0.18 nM. It also gave a GI50 (GIST430) of 1 nM, a GI50 (GIST48) of 2 nM and an IC50 [9] of 0.89 nM. For the same molecule, the inhibition [10] was “Active”, the GI50 [11] was over 100 nM and the GI50 at 72 h [12] was over 10000 nM. For the same molecule, the GI50 (GISTT1) was 2.2 nM, the inhibition [13] was 82% and the IC50 [14] was 1.66 nM. The inhibition [15] was 97%, the IC50 [16] was 0.67 nM and the IC50 [17] was 69 nM. The IC50 [18] was 0.98 nM, the inhibition [19] was 75% and the Cmax [20] was 562 ng/mL. For the same molecule, the inhibition [21] was 90% and the inhibition [22] was 100%.
